Measured values from patent publication US9943471B2, “Beta-2-adrenergic receptor agonist for improving skin scar colour matching” (UNIVERSITY OF LEICESTER, priority 2013, dated 2018).
Like-named read-outs stand apart in the source and are kept apart here.

Experiments:
[1] = test system: melanoma cells; conditions: cited from earlier work
[2] = test system: age spots; conditions: added topically, Chinese females with age spots; cited from earlier work
[3] = test system: melanocytes; conditions: cited from earlier work
[4] = test system: full-thickness wounds, Red Duroc pig; experiment: Red Duroc pig wound scar study: scar scale scores; format: in vivo
Text: Anatomically and physiologically, porcine skin is very similar to human skin [19]. Wounds in small mammal skin, which is untethered, heal primarily by wound contraction, whereas porcine and human skin wounds close primarily by wound re-epithelialisation. The Red Duroc pig is well established as a reproducible model of fibro proliferative and hypertrophic scar formation. Similar to human hypertrophic scars, Red Duroc pigs heal wounds with an excessive amount of collagen deposition and increased wound contraction. In addition, the wounds heal with hyperpigmentation at the wound margins creating hyperpigmented scars and the scars are raised, similar to human scars. […] A porcine wound scar study was conducted in the Red Duroc pig. 4 rows of 5 (2×2 cm) full-thickness wounds were created, either side of the spine, on the shaved backs of 10 Red Durocs (FIGS. 1, 4). […] Two wounds per animal were biopsied (6 mm punch) at 7, 14, 21, 28 and 42 days post wounding. The remaining 10 wound scars per animal were photographed and harvested at day 56 post-wounding, giving a total of 5 wounds per position, 50 wounds in total for each group. A number of scales have been developed to score the severity of human scars. The Vancouver scar scale (VSS), the Manchester scar scale (MSS) and the patient and observer scar assessment scale (POSAS). We developed our own scale to score the severity of the Red Duroc scars based on the VSS [7] and the MSS [8]. The patient and observer scar assessment scale (POSAS) could not be used as it requires patient involvement. The VSS measures four parameters: pigmentation, vascularity, pliability and height, while the MSS measures colour, contour, distortion and texture. Our scar scale was developed to score a number of scar characteristics including: pigmentation, colour match with surrounding tissue, skin sheen, pliability, texture and height contour.

[5] = test system: full-thickness wounds, Red Duroc pig; experiment: Red Duroc pig wound scar study: scar area and wound area; format: in vivo; design: scar area reduction / scar area smaller than control wounds / wound area smaller than control (less swollen) / wound area larger than control (less contracted): concentration or dose not given beside the values
Method: A porcine wound scar study was conducted in the Red Duroc pig. 4 rows of 5 (2×2 cm) full-thickness wounds were created, either side of the spine, on the shaved backs of 10 Red Durocs (FIGS. 1, 4). […] Two wounds per animal were biopsied (6 mm punch) at 7, 14, 21, 28 and 42 days post wounding. The remaining 10 wound scars per animal were photographed and harvested at day 56 post-wounding, giving a total of 5 wounds per position, 50 wounds in total for each group. The scar closest to the average scar area, at each position, for both control and sal-treated wounds are presented (FIG. 5b). […] Indeed, by day 28 and 42 post-wounding the scar area of the sal-treated wounds was already 34.1% and 37.7% smaller than control wounds (FIG. 6a; ***P<0.001). Wound area was also measured in early time points.

[6] = test system: βARs; design: dose or concentration left out as unconfirmed; conditions: cited from earlier work
[7] = 5 mM in Granugel, 500 μl per wound daily, day 56, vs control

Structure (SMILES): C=CCCCCCCCCC(=O)N[C@@H](Cc1ccccc1)C(=O)O [undecylenoyl phenylalanine]
- melanin production [1]: suppressed melanin production
- skin lightening [2]: skin lightening effect

Structure (SMILES): CNCC(O)c1ccc(O)c(O)c1 (stereo not drawn) [Adrenaline, adrenaline]
- melanin production / melanogenesis in melanocytes [3]: increased melanin production
- melanin production / melanogenesis in melanocytes ([3]; listed as Epinephrine): increases melanin synthesis

Structure (SMILES): NC[C@H](O)c1ccc(O)c(O)c1 [noradrenaline]
- melanin production / melanogenesis in melanocytes [3]: no effect

Structure (SMILES): CC(C)(C)NCC(O)c1ccc(O)c(CO)c1 (stereo not drawn) [salbutamol]
- improvement of colour match score [4, 7]: 44%
- improvement of height contour score [4, 7]: 34%
- improvement of pigmentation score [4, 7]: 48%
- improvement of pliability score [4, 7]: 22%
- improvement of sheen score [4, 7]: 53%
- improvement of texture score [4, 7]: 22%
- scar appearance vs control scars ([4]; day 56 post-wounding, P<0.0001): less hyper-pigmented
- scar area reduction ([5]; 56 days post wounding, vs control): 47.1%
- wound area smaller than control (less swollen) ([5]; after 7 days): 11%
- wound area larger than control (less contracted) ([5]; after 14 days): 23%
- wound area vs control wounds ([5]; by 28 days): slightly smaller
- scar area smaller than control wounds ([5]; day 28 post-wounding): 34.1%
- scar area smaller than control wounds ([5]; day 42 post-wounding): 37.7%
- re-epithelialisation rate vs control wounds ([5]; early time points): No significant difference
- activation of βARs [6]: activate all βARs
- cAMP levels ([3]; melanocytes, in association with increased melanogenesis): enhances cAMP levels
